According to publication PMC9128828 (Nature medicine, 2021):

Assays:
mouse xenograft models = conditions: cited from earlier work
erythropoietin = assay: Pharmacodynamics: plasma erythropoietin, phase 1 study; type: in vivo, human; conditions: all dose levels
Safety = type: in vivo, human; conditions: for All-cause adverse event: Anemia / All-cause adverse event: Any / All-cause adverse event: Arthralgia / All-cause adverse event: Back pain / All-cause adverse event: Blood creatinine increased / All-cause adverse event: Constipation / All-cause adverse event: Cough / All-cause adverse event: Dehydration / All-cause adverse event: Diarrhea / All-cause adverse event: Dizziness / All-cause adverse event: Dyspnea / All-cause adverse event: Edema peripheral / All-cause adverse event: Fatigue / All-cause adverse event: Headache / All-cause adverse event: Hyperkalemia / All-cause adverse event: Hypoxia / All-cause adverse event: Nausea / All-cause adverse event: Vomiting: ccRCC cohort (n = 55)
advanced solid tumors = assay: Anti-tumor activity per RECIST v1.1, dose-escalation cohort; type: in vivo, human
[1] = Plasma pharmacokinetics of belzutifan, phase 1 study; type: in vivo, human
[2] = system: previously treated advanced ccRCC; assay: Anti-tumor activity per RECIST v1.1, ccRCC cohort; type: in vivo, human
[3] = previous study; cited from earlier work
[4] = Safety and dose-limiting toxicities, dose-escalation cohort; type: in vivo, human
[5] = ccRCC cohort n = 55, all grade 3
[6] = RECIST v1.1, ccRCC cohort, n = 55

For `CS(=O)(=O)c1ccc(Oc2cc(F)cc(C#N)c2)c2c1[C@H](O)C(F)(F)C2` [MK-3795, reference compound], the Tumor regression (mouse xenograft models; xenograft models) is given as “significant tumor regression”.

For `CS(=O)(=O)c1ccc(Oc2cc(F)cc(C#N)c2)c2c1[C@H](O)[C@H](F)[C@@H]2F` [belzutifan, 3-[(1 S,2 S,3 R)-2,3-difluoro-1-hydroxy-7-methylsulfonylindan-4-yl]oxy-5-fluorobenzo nitrile], the “Change in plasma erythropoietin” value (erythropoietin) is given as “reductions”, the “Potency relative to MK-3795” value (mouse xenograft models; mouse xenograft models) is given as “approximately ten-fold more potent than MK-3795” and the “Patients with anemia who received exogenous erythropoietin” value (Safety; 28 of 42 patients with anemia) is given as 67%. For the same compound, the “All-cause adverse event: Anemia” value (Safety; All grades or 2) was 42 (76) no. (%), the “All-cause adverse event: Any” value (Safety; All grades or 2) was 55 (100) no. (%) and the “All-cause adverse event: Arthralgia” value (Safety; All grades or 2) was 14 (25) no. (%). The “All-cause adverse event: Back pain” value (Safety; All grades or 2) was 12 (22) no. (%), the “All-cause adverse event: Blood creatinine increased” value (Safety; All grades or 2) was 14 (25) no. (%) and the “All-cause adverse event: Constipation” value (Safety; All grades or 2) was 12 (22) no. (%). For the same compound, the “All-cause adverse event: Cough” value (Safety; All grades or 2) was 17 (31) no. (%), the “All-cause adverse event: Dehydration” value (Safety; All grades or 2) was 11 (20) no. (%) and the “All-cause adverse event: Diarrhea” value (Safety; All grades or 2) was 12 (22) no. (%). For the same compound, the “All-cause adverse event: Dizziness” value (Safety; All grades or 2) was 13 (24) no. (%), the “All-cause adverse event: Dyspnea” value (Safety; All grades or 2) was 27 (49) no. (%) and the “All-cause adverse event: Edema peripheral” value (Safety; All grades or 2) was 15 (27) no. (%). The “All-cause adverse event: Fatigue” value (Safety; All grades or 2) was 39 (71) no. (%), the “All-cause adverse event: Headache” value (Safety; All grades or 2) was 14 (25) no. (%) and the “All-cause adverse event: Hyperkalemia” value (Safety; All grades or 2) was 12 (22) no. (%). The “All-cause adverse event: Hypoxia” value (Safety; All grades or 2) was 17 (31) no. (%), the “All-cause adverse event: Nausea” value (Safety; All grades or 2) was 20 (36) no. (%) and the “All-cause adverse event: Vomiting” value (Safety; All grades or 2) was 16 (29) no. (%). The “All-cause adverse event: Anemia” value (Safety; Grade 1) was 27 (49) no. (%), the “All-cause adverse event: Any” value (Safety; Grade 1) was 16 (29) no. (%) and the “All-cause adverse event: Arthralgia” value (Safety; Grade 1) was 14 (25) no. (%). The “All-cause adverse event: Back pain” value (Safety; Grade 1) was 11 (20) no. (%), the “All-cause adverse event: Blood creatinine increased” value (Safety; Grade 1) was 13 (24) no. (%) and the “All-cause adverse event: Constipation” value (Safety; Grade 1) was 12 (22) no. (%). For the same compound, the “All-cause adverse event: Cough” value (Safety; Grade 1) was 17 (31) no. (%), the “All-cause adverse event: Dehydration” value (Safety; Grade 1) was 10 (18) no. (%) and the “All-cause adverse event: Diarrhea” value (Safety; Grade 1) was 12 (22) no. (%). The “All-cause adverse event: Dizziness” value (Safety; Grade 1) was 13 (24) no. (%), the “All-cause adverse event: Dyspnea” value (Safety; Grade 1) was 24 (44) no. (%) and the “All-cause adverse event: Edema peripheral” value (Safety; Grade 1) was 15 (27) no. (%). The “All-cause adverse event: Fatigue” value (Safety; Grade 1) was 36 (65) no. (%), the “All-cause adverse event: Headache” value (Safety; Grade 1) was 13 (24) no. (%) and the “All-cause adverse event: Hyperkalemia” value (Safety; Grade 1) was 11 (20) no. (%). For the same compound, the “All-cause adverse event: Hypoxia” value (Safety; Grade 1) was 8 (15) no. (%), the “All-cause adverse event: Nausea” value (Safety; Grade 1) was 19 (35) no. (%) and the “All-cause adverse event: Vomiting” value (Safety; Grade 1) was 16 (29) no. (%). The “All-cause adverse event: Anemia” value (Safety; Grade 3) was 15 (27) no. (%), the “All-cause adverse event: Any” value (Safety; Grade 3) was 33 (60) no. (%) and the “All-cause adverse event: Arthralgia” value (Safety; Grade 3) was 0 (0) no. (%). The “All-cause adverse event: Back pain” value (Safety; Grade 3) was 1 (2) no. (%), the “All-cause adverse event: Blood creatinine increased” value (Safety; Grade 3) was 1 (2) no. (%) and the “All-cause adverse event: Constipation” value (Safety; Grade 3) was 0 (0) no. (%). For the same compound, the “All-cause adverse event: Cough” value (Safety; Grade 3) was 0 (0) no. (%), the “All-cause adverse event: Dehydration” value (Safety; Grade 3) was 1 (2) no. (%) and the “All-cause adverse event: Diarrhea” value (Safety; Grade 3) was 0 (0) no. (%). The “All-cause adverse event: Dizziness” value (Safety; Grade 3) was 0 (0) no. (%), the “All-cause adverse event: Dyspnea” value (Safety; Grade 3) was 3 (5) no. (%) and the “All-cause adverse event: Edema peripheral” value (Safety; Grade 3) was 0 (0) no. (%). For the same compound, the “All-cause adverse event: Fatigue” value (Safety; Grade 3) was 3 (5) no. (%), the “All-cause adverse event: Headache” value (Safety; Grade 3) was 1 (2) no. (%) and the “All-cause adverse event: Hyperkalemia” value (Safety; Grade 3) was 1 (2) no. (%). For the same compound, the “All-cause adverse event: Hypoxia” value (Safety; Grade 3) was 9 (16) no. (%), the “All-cause adverse event: Nausea” value (Safety; Grade 3) was 1 (2) no. (%) and the “All-cause adverse event: Vomiting” value (Safety; Grade 3) was 0 (0) no. (%). The “All-cause adverse event: Anemia” value (Safety; Grade 4) was 0 (0) no. (%), the “All-cause adverse event: Any” value (Safety; Grade 4) was 2 (4) no. (%) and the “All-cause adverse event: Arthralgia” value (Safety; Grade 4) was 0 (0) no. (%). The “All-cause adverse event: Back pain” value (Safety; Grade 4) was 0 (0) no. (%), the “All-cause adverse event: Blood creatinine increased” value (Safety; Grade 4) was 0 (0) no. (%) and the “All-cause adverse event: Constipation” value (Safety; Grade 4) was 0 (0) no. (%). For the same compound, the “All-cause adverse event: Cough” value (Safety; Grade 4) was 0 (0) no. (%), the “All-cause adverse event: Dehydration” value (Safety; Grade 4) was 0 (0) no. (%) and the “All-cause adverse event: Diarrhea” value (Safety; Grade 4) was 0 (0) no. (%). For the same compound, the “All-cause adverse event: Dizziness” value (Safety; Grade 4) was 0 (0) no. (%), the “All-cause adverse event: Dyspnea” value (Safety; Grade 4) was 0 (0) no. (%) and the “All-cause adverse event: Edema peripheral” value (Safety; Grade 4) was 0 (0) no. (%). The “All-cause adverse event: Fatigue” value (Safety; Grade 4) was 0 (0) no. (%), the “All-cause adverse event: Headache” value (Safety; Grade 4) was 0 (0) no. (%) and the “All-cause adverse event: Hyperkalemia” value (Safety; Grade 4) was 0 (0) no. (%). The “All-cause adverse event: Hypoxia” value (Safety; Grade 4) was 0 (0) no. (%), the “All-cause adverse event: Nausea” value (Safety; Grade 4) was 0 (0) no. (%) and the “All-cause adverse event: Vomiting” value (Safety; Grade 4) was 0 (0) no. (%). For the same compound, the “Patients requiring dose reductions or discontinuations for anemia” value (Safety; ccRCC cohort) was “No patients”, the “Patients with at least one adverse event” value (Safety; ccRCC cohort) was “All patients” and the “Treatment-related grade 4 or 5 events” value (Safety; ccRCC cohort) was “No treatment-related grade 4 or 5 events occurred”. The “Treatment-related adverse event: anemia” value (Safety; ccRCC cohort n = 55) was 71%, the “Treatment-related adverse event: hypoxia” value (Safety; ccRCC cohort n = 55) was 18% and the “Treatment-related adverse event: nausea” value (Safety; ccRCC cohort n = 55) was 15%. The “Treatment-related adverse event: peripheral edema” value (Safety; ccRCC cohort n = 55) was 16%, the “Grade ≥3 treatment-emergent adverse event: anemia” value (Safety; [5]) was 27% and the “Grade ≥3 treatment-emergent adverse event: hypoxia” value (Safety; [5]) was 16%. For the same compound, the “Patients requiring dose reductions because of treatment-related adverse events” value (Safety; ccRCC cohort, five patients) was 9%, the “Patients who discontinued after treatment-related adverse events” value (Safety; ccRCC cohort, two patients, both hypoxia) was 4% and the “Patients with grade 5 adverse events” value (Safety; ccRCC cohort, disease progression, malignant neoplasm progression, acute kidney injury, cardiac arrest) was “four patients”. The “Responses (all partial)” value (advanced solid tumors; 120 mg once daily, one of six patients) was 17%, the “Responses (all partial)” value (advanced solid tumors; 120 mg twice daily, one of six patients) was 17% and the “Responses (all partial)” value (advanced solid tumors; 160 mg once daily, two of six patients) was 33%. For the same compound, the “Median duration of response” value (advanced solid tumors; any dose cohort, patients who had a response) was “not reached”, the “Dose-normalized area under the concentration curve from time 0 to the end of the dosing period, dependence on dose” value ([1]; 20–240 mg once daily) was “increased with dose from 20 to 120 mg but decreased from 120 to 240 mg once daily” and the Mean accumulation ratio ([1]; 120-mg twice-daily dosing) was 2.4. The “Increase in maximum concentration” value ([1]; 240-mg once-daily cohort compared to 120-mg once-daily expansion cohort) was 38%, the “Median time to maximum observed plasma concentration” value ([1]; across dose levels, oral) was 1.0 to 2.0 h and the half-life ([1]; human, in vivo, po) was 11.2 to 21.5 h. For the same compound, the Mean accumulation ratio ([1]; once-daily dosing) was 1.3–1.5, the “Patients with target lesion size reduced from baseline” value ([2]; 35 of 52 patients with baseline and post-baseline imaging) was 67% and the Median progression-free survival ([2]; IMDC favorable risk) was “not reached”. The Complete response [2, 6] was 0 (0) no. (%), the Non-evaluable [2, 6] was 3 (5) no. (%) and the Partial response [2, 6] was 14 (25) no. (%). The Progressive disease [2, 6] was 8 (15) no. (%), the Stable disease [2, 6] was 30 (54) no. (%) and the “Median duration of response” value ([2]; ccRCC cohort) was “not reached”. The Disease control rate ([2]; ccRCC cohort n = 55, 120 mg once daily) was 80%, the Objective response rate ([2]; ccRCC cohort n = 55, 120 mg once daily, all partial responses) was 25% and the Median progression-free survival ([2]; ccRCC cohort, 95% CI 7.3–not reached, Kaplan–Meier) was 14.5 months. The “Responders with duration of response ≥6 months” value ([2]; ten of 14 responders) was 71%, the “Exposure to belzutifan, dependence on dose” value [3] was “increased with doses up to 120 mg once daily” and the “Patients with treatment-related dose-limiting toxicity” value ([4]; 120 mg twice daily, one of six patients, grade 3 hypoxia) was 17%. For the same compound, the “Patients with treatment-related dose-limiting toxicity” value ([4]; 240 mg orally, one of seven patients, grade 4 thrombocytopenia) was 14%, the Maximum tolerated dose ([4]; dose-escalation cohort) was “not reached” and the Dose-limiting toxicities ([4]; doses up to 160 mg once daily) was “no dose-limiting toxicities”.
